According to patent US12109221B2, “Combination therapy for treating cancer” (LEUKOS BIOTECH, S.L., priority 2017, dated 2024):

Experiments:
[1] = tested on: MonoMac-1 AML cells; experiment: In vivo xenotransplantation assay, human AML cells in bones by flow cytometry; set-up: species or system NSG mice; conditions: 5 mg/kg apomorphine and 30 mg/kg cytarabine, intraperitoneally, 5 days
Protocol: FIG. 4. […] Bulsulfan-conditioned NSG adult mice were intravenously injected with 1×10^6 MonoMac-1 AML cells. One week after transplantation, mice were treated with 5 mg/kg apomorphine (APO) and/or 30 mg/kg cytarabine (CYT) daily for 5 days. Mice were culled and bones were harvested. Human leukemia cells were detected based on the expression of hCD45 on the surface membrane by flow cytometry. Normalized number of human AML cells against control-treated mice is represented. Bars correspond to mean values and error bars to SEM. ** p<0.01; **** p<0.0001. hAML: #human AML cells (referred to 15 control). CTR: Control.
In order to verify that the synergic cytotoxic effect was also detectable in vivo, pharmacological-conditioned NSG mice were transplanted intravenously with 1×10^6 MonoMac-1 AML cells. One week after transplantation, mice were treated for 5 days with 5 mg/kg apomorphine and/or 30 mg/kg cytarabine, both of them intraperitoneally. Mice were culled and bones were harvested and analyzed for human leukemia by flow cytometry.

[2] = tested on: Sp1 gene expression in HL-60 AML cells; experiment: Sp1 mRNA expression by semi-quantitative PCR; format: cell-based, human; conditions: HL-60 cells, 72 h; 10 µM apomorphine, 10 µM methiothepin, 5 µM SB224289
Protocol: FIG. 7. Treatment with HTR1 antagonists decreased Sp1 gene expression. HL-60 AML cells were treated with 10 μM apomorphine (APO), 10 μM methiothepin (MET) or 5 μM SB224289 (SB9) for 72 h. Total RNA was isolated and cDNA was obtained afterwards. Semi-quantitative PCR was performed to detect gene expression. Sp1 gene expression is represented as 2^(−ΔΔCt) using GAPDH as the endogenous control. Bars represent the mean value of triplicates. Error bars correspond to SEM. * p<0.05; **** p<0.0001. ddCt: 2^(−ΔΔCt).
At a gene expression level, the expression of Sp1 mRNA was studied. Sp1 has been implicated with chemotherapeutic resistance (Zhang et al. Mol Cancer 2015; 14:56). HL-60 AML cells were treated for 72 h with 10 µM apomorphine, 10 µM methiothepin and 5 µM SB224289. Total RNA as isolated and mRNA was retrotranscribed to cDNA. Semi-quantitative PCR was performed with specific TaqMan oligo pairs.

[3] = tested on: AML cell lines (TPH-1 and MonoMac1); experiment: Cell viability by flow cytometry 72 h after treatment, HTR1 antagonist plus cytarabine, combination index; format: cell-based, human; conditions: in combination with cytarabine, CI below 1 = synergism
Protocol: FIGS. 1A and 1B. […] FIG. 1A. Cell viability was measured by flow cytometry (correct FSC-SSC profile, 7-AAD-, Hoechst33342^low). Normalized number of live cells is graphed. Bars represent the mean value and error bars represent SEM. *** p<0.001; **** p<0.0001. NLC: Number of live cells (referred to control). FIG. 1B. Combination index (CI) value of each combination.
(§1) Synergy is determined herein by means of the Combination Index Model, described previously (Chou T C, Pharmacological Reviews 58: 621-681, 2006). The CI was measured using Compusyn open software. CI values below 1 indicate synergism. CI values about 1 indicate additivism and CI values above 1 indicate antagonisms.

[4] = tested on: AML cell lines (HL-60 and MonoMac-1); experiment: Cell viability by flow cytometry 72 h after treatment, HTR1 antagonist plus azacitidine or decitabine, combination index; format: cell-based, human
Protocol: FIGS. 2A and 2B. […] MonoMac-1 cells were cultured for 72 h in a complete RPMI medium in the presence of 2, 5, 10 μM apomorphine (APO) or methiothepin (MET), and 100, 200, 1000 nM azacitidine (AZA). FIG. 2A. Cell viability was measured by flow cytometry (correct FSC-SSC profile, 7-AAD-, Hoechst33342^low). Normalized number of live cells is graphed. Bars represent the mean value and error bars represent SEM. *** p<0.001; **** p<0.0001. NLC: Number of live cells (referred to control). FIG. 2B. Combination index (CI) value of each combination.
FIGS. 3A and 3B. […] Cell viability was measured by flow cytometry (correct FSC-SSC profile, 7-AAD-, Hoechst33342^low). […]
Synergy is determined herein by means of the Combination Index Model, described previously (Chou T C, Pharmacological Reviews 58: 621-681, 2006). The CI was measured using Compusyn open software. […]
Next, the inventors examined the interaction between HTR1 antagonists and azacitidine. […] Cell viability was measured by flow cytometry (live cells according to the correct FSC-SSC profile, 7-AAD negativity and Hoechst 33342 positivity) 72 h after treatment.
Similarly, decitabine was also interrogated for its potential cytotoxic interaction with HTR1 antagonists. […] 72 h after treatment, cell viability was measured by flow cytometry (live cells according to the correct FSC-SSC profile, 7-AAD negativity and Hoechst 33342 positivity).

[5] = tested on: AML cell line (MonoMac-1); experiment: Cell viability by flow cytometry 72 h after treatment, HTR1 antagonist plus cladribine, fludarabine or methotrexate, combination index; format: cell-based, human
Protocol: FIGS. 8A and 8B. […] MonoMac-1 cells were cultured for 72 h in a complete RPMI medium in the presence of 5, 10 μM apomorphine (APO) or methiothepin (MET), and 10, 27, 55 nM cladribine (CLD). FIG. 8A. Combination index (CI) value of CLD and APO combination. FIG. 8B. CI value of CLD and MET combination.
FIGS. 9A and 9B. […] MonoMac-1 cells were cultured for 72 h in a complete RPMI medium in the presence of 5, 10 μM apomorphine (APO) or methiothepin (MET), and 200, 500, 1000 nM fludarabine (FLD). FIG. 9A. CI value of FLD and APO combination. FIG. 9B. CI value of FLD and MET combination.
FIG. 10. […] MonoMac-1 cells were cultured for 72 h in a complete RPMI medium in the presence of 5, 10 μM apomorphine (APO), and 2.5, 6.25, 12.5 nM methotrexate (MTX). CI value of MTX and APO combination.
as §1
Cladribine is a cytostatic drug indicated for myeloid neoplasias. […] 72 h after treatment, cell viability was measured by flow cytometry (live cells according to the correct FSC-SSC profile, 7-AAD negativity and Hoechst 33342 positivity, and volumetrically counted).
The potential cytotoxic interaction of fludarabine with HTR1 antagonists was also examined on the same experimental conditions of the example 8. […] 72 h after treatment, cell viability was measured by flow cytometry (live cells according to the correct FSC-SSC profile, 7-AAD negativity and Hoechst 33342 positivity, and volumetrically counted).
Finally, the interaction of the antineoplastic drug methotrexate with HTR1 antagonist was studied. […] 72 h after treatment, cell viability was measured by flow cytometry (live cells according to the correct FSC-SSC profile, 7-AAD negativity and Hoechst 33342 positivity, and volumetrically counted).

[6] = tested on: HL-60 and Ara-C-resistant HL-60; experiment: Sensitivity to HTR1 antagonists, parental versus Ara-C-resistant cells, cell viability by flow cytometry; format: cell-based, human; conditions: HL-60 parental vs Ara-C-resistant HL-60; 72 h
[7] = tested on: KG-1 and Ara-C-resistant KG-1; experiment: as above; format: cell-based, human; conditions: KG-1 parental vs Ara-C-resistant KG-1; 72 h

| Structure (SMILES) | effect of the combination in in vivo treatment of AML-bearing mice [1] | Sp1 gene expression [2] | interaction with cytarabine according to the combination index model [3] | interaction with azacitidine (combination index) ([4]; in combination with azacitidine) | interaction with decitabine (combination index) ([4]; in combination with decitabine) | interaction with cladribine (combination index) ([5]; in combination with cladribine) | interaction with fludarabine (combination index) ([5]; in combination with fludarabine) | interaction with methotrexate (combination index) ([5]; in combination with methotrexate, low and high concentrations) | EC50, parental compared to Ara-C-resistant cells [6] | EC50, parental compared to Ara-C-resistant cells [7] |
| --- | --- | --- | --- | --- | --- | --- | --- | --- | --- | --- |
| Nc1ccn([C@@H]2O[C@H](CO)[C@H](O)[C@@H]2O)c(=O)n1 [Ara-C, 4-amino-1-[(2R,3S,4R,5R)-3,4-dihydroxy-5 (hydroxymethyl)oxolan-2-yl]pyrimidin-2-one] | synergistic effect | – | – | – | – | – | – | – | – | – |
| Cc1nc(-c2ccc(-c3ccc(C(=O)N4CCc5cc6c(cc54)C4(CCN(C)CC4)CO6)cc3)c(C)c2)no1 [SB224289] | – | downregulation of Sp1 gene expression | – | – | – | – | – | – | – | – |
| CN1CCc2cccc3c2[C@H]1Cc1ccc(O)c(O)c1-3 [apomorphine, (6aR)-6-methyl-5,6,6a, 7-tetrahydro-4H-dibenzo[de, g]quinoline-10,11-diol] | synergistic effect | downregulation of Sp1 gene expression | act synergically | synergically anti-leukemic effect | synergically anti-leukemic effect | synergically anti-leukemic effect | synergically antileukemic effect | synergically anti-leukemic effect | equivalent EC50 values | equivalent EC50 values |
